IC50 data for 16 compounds are collected here from patent US20250215029A1 (Recludix Pharma, Inc., priority 2022, published 2025).

Like-named read-outs stand apart in the source and are kept apart here. A value given as a limit tells only on which side of the number the result lay.

Test [1] has as its target T1, Recombinant STAT6 protein (STAT6 (W123-T658)) (Homo sapiens, UniProt P42226).
T1 construct: Recombinant STAT6 protein (STAT6 (W123-T658))
T1 sequence (P42226 123-658): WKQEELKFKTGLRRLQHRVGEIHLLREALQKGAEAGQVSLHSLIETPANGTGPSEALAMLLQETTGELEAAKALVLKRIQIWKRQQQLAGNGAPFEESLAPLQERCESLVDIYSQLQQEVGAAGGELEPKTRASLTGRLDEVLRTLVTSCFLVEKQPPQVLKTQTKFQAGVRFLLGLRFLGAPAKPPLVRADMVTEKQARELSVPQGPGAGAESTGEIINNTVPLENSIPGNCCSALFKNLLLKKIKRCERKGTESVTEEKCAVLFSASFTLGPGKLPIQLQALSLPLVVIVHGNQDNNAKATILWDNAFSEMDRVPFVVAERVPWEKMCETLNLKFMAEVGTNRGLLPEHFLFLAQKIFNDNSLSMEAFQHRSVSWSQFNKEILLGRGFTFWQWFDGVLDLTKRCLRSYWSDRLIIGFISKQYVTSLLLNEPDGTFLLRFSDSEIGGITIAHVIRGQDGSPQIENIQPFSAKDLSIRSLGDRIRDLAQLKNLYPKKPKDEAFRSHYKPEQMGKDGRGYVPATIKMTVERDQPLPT
Put plainly: STAT6 Fluorescence Polarization (FP) Assay. The class given is binding. Particulars: STAT6 (W123-T658) 250 nM, 45-minute incubation, read-out: STAT6 (FP assay IC50 class). In short, it runs like this:
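Competitive FP binding: recombinant STAT6 (W123-T658) at 250 nM, labeled phosphotyrosine peptide at 2 nM, compounds at 1% DMSO, 45 min at RT before reading. IC50 values were obtained from nonlinear regression of mP versus log concentration.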
A general note: Polarisation of emitted light reports the rotation of a fluorescent probe.

Test [2] concerns the target T2, Recombinant STAT3 protein (STAT3 (G127-I722)) (Homo sapiens, UniProt P40763).
T2 construct: Recombinant STAT3 protein (STAT3 (G127-I722))
Put plainly: STAT3 Fluorescence Polarization (FP) Assay. The class given is binding. Particulars: STAT3 (G127-I722) 25 nM, probe 5-FAM-GpYLPQTV-NH2 2 nM, 45-minute incubation; read-out: STAT3 (FP assay IC50 class). An outline of the steps:
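Compounds in serial dilution receive a premix of STAT3 (G127-I722, 25 nM) and fluorescent phosphotyrosine peptide 5-FAM-GpYLPQTV-NH2 (2 nM) at pH 7.4. After 45 min at room temperature, FP is measured and IC50 derived by nonlinear regression.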

T2 sequence (P40763 127-722): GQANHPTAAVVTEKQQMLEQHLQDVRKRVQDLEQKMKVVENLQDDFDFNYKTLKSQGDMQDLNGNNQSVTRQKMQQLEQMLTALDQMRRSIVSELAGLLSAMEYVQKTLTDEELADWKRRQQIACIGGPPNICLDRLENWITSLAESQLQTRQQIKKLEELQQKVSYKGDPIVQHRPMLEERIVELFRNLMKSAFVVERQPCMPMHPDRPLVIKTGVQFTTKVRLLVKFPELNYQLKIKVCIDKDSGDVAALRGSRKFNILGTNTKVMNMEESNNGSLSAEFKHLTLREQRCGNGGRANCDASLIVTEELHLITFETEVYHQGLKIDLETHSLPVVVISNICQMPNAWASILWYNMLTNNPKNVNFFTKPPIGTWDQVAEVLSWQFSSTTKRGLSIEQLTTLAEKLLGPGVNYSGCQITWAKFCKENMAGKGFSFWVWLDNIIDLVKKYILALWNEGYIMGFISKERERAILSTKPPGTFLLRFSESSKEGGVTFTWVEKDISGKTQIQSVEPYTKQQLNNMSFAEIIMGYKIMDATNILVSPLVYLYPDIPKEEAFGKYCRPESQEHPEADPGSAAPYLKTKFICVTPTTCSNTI

The IC50 is the concentration that inhibits the measured activity by half. `O=C(N[C@H]1CCC[C@H]2CC[C@@H](C(=O)N3CC(c4cccnc4)C3)N2C1=O)c1cc2cc([C@@H](F)P(=O)(O)O)ccc2s1` [Compound 873, ((S)-fluoro(2-(((3S,6S,9aS)-5-oxo-3-(3-(802yridine-3-yl)azetidine-1-carbonyl)octahydro-1H-pyrrolo[1,2-a]azepin-6-yl)carbamoyl)benzo [b]thiophen-5-yl)methyl) phosphonic acid]: the results for the IC50 in test [1] (probe 5-FAM-ApYKPFQDLI-NH2 2 nM) and in test [2] were 3000 to 30000 nM and under 100 nM, respectively.

In the case of `O=C(N[C@H]1CCCC[C@H]2CC[C@@H](C(=O)N3CC(c4cc[nH]c(=O)c4)CC34CC4)N2C1=O)c1ccc2ccc(C(F)(F)P(=O)(O)O)cc2c1` (stereo partly drawn) [Compound 877, (difluoro(7-(((3S,6S,10aS)-5-oxo-3-(6-(2-oxo-1,2-dihydropyridin-4-yl)-4-azaspiro[2.4]heptane-4-carbonyl)decahydropyrrolo[1,2-a]azocin-6-yl)carbamoyl)naphthalen-2-yl)methyl) phosphonic acid], the IC50 is at most 300 nM in test [1] (probe 5-FAM-Ap[…]-NH2 2 nM) and 1000 to 10000 nM in test [2].

With `O=C(N[C@H]1CCCC[C@H]2CC[C@@H](C(=O)N3CC(c4ccccc4)CC34CC4)N2C1=O)c1ccc2ccc(C(F)(F)P(=O)(O)O)cc2c1` (stereo partly drawn) [Compound 880, (difluoro(7-(((3S,6S,10aS)-5-oxo-3-(6-phenyl-4-azaspiro[2.4]heptane-4-carbonyl)decahydropyrrolo[1,2-a]azocin-6-yl)carbamoyl)naphthalen-2-yl)methyl) phosphonic acid], the half-inhibitory concentration (IC50) is at most 300 nM in test [1] (probe 5-FAM-Ap[…]-NH2 2 nM) and 1000 to 10000 nM in test [2].

Consider `O=C(N[C@H]1CCCC[C@H]2CC[C@@H](C(=O)N3C[C@H](c4cc[nH]c(=O)c4)CC34CC4)N2C1=O)c1ccc2ccc(CP(=O)(O)O)cc2c1` [Compound 882, ((7-(((3S,6S,10aS)-5-oxo-3-((S)-6-(2-oxo-1,2-dihydropyridin-4-yl)-4-azaspiro[2.4]heptane-4-carbonyl)decahydropyrrolo[1,2-a]azocin-6-yl)carbamoyl)naphthalen-2-yl)methyl) phosphonic acid], for which the IC50 in test [1] (probe 5-FAM-Ap[…]-NH2 2 nM) is 300 to 3000 nM; in test [2], 1000 to 10000 nM.

In the case of `O=C(N[C@H]1CCCC[C@H]2CC[C@@H](C(=O)N3C[C@@H](c4cc[nH]c(=O)c4)CC34CC4)N2C1=O)c1ccc2ccc(CP(=O)(O)O)cc2c1` [Compound 883, ((7-(((3S,6S,10aS)-5-oxo-3-((R)-6-(2-oxo-1,2-dihydropyridin-4-yl)-4-azaspiro[2.4]heptane-4-carbonyl)decahydropyrrolo[1,2-a]azocin-6-yl)carbamoyl)naphthalen-2-yl)methyl) phosphonic acid], the IC50 in test [1] (probe 5-FAM-Ap[…]-NH2 2 nM) was in the range of 300 to 3000 nM; in test [2], 1000 to 10000 nM.

On to `O=C(N[C@H]1CCCC[C@H]2CC[C@@H](C(=O)N3CC(c4ccccc4)CC34CC4)N2C1=O)c1ccc2ccc(CP(=O)(O)O)cc2c1` (stereo partly drawn) [Compound 884, ((7-(((3S,6S,10aS)-5-oxo-3-(6-phenyl-4-azaspiro[2.4]heptane-4-carbonyl)decahydropyrrolo[1,2-a]azocin-6-yl)carbamoyl)naphthalen-2-yl)methyl) phosphonic acid], for which the figures for the IC50 in test [1] (probe 5-FAM-Ap[…]-NH2 2 nM) and in test [2] were 300 to 3000 nM and 1000 to 10000 nM, respectively.

Take `C/C1=C/[C@H]2CC[C@@H](C(=O)N3CC(c4ccccc4)CC34CC4)N2C(=O)[C@@H](NC(=O)c2ccc3ccc(CP(=O)(O)O)cc3c2)CC1` (stereo partly drawn) [Compound 885, ((7-(((3S,6S,10aR,Z)-9-methyl-5-oxo-3-(6-phenyl-4-azaspiro[2.4]heptane-4-carbonyl)-1,2,3,5,6,7,8,10a-octahydropyrrolo[1,2-a]azocin-6-yl)carbamoyl)naphthalen-2-yl)methyl) phosphonic acid]: the IC50 lay in the range of 300 to 3000 nM in test [1] (probe 5-FAM-Ap[…]-NH2 2 nM) and 1000 to 10000 nM in test [2].

Regarding `C[C@@H]1CC[C@H](NC(=O)c2ccc3ccc(CP(=O)(O)O)cc3c2)C(=O)N2[C@H](CC[C@H]2C(=O)N2CC(c3ccccc3)CC23CC3)C1` (stereo partly drawn) [Compound 887, ((7-(((3S,6S,9R,10aR)-9-methyl-5-oxo-3-(6-phenyl-4-azaspiro[2.4]heptane-4-carbonyl)decahydropyrrolo[1,2-a]azocin-6-yl)carbamoyl)naphthalen-2-yl)methyl) phosphonic acid], the results for the IC50 in test [1] (probe 5-FAM-Ap[…]-NH2 2 nM) and in test [2] were 300 to 3000 nM and 1000 to 10000 nM, respectively.

Turning to `C[C@H]1CC[C@H](NC(=O)c2ccc3ccc(CP(=O)(O)O)cc3c2)C(=O)N2[C@H](CC[C@H]2C(=O)N2CC(c3ccccc3)CC23CC3)C1` (stereo partly drawn) [Compound 888, ((7-(((3S,6S,9S,10aR)-9-methyl-5-oxo-3-(6-phenyl-4-azaspiro[2.4]heptane-4-carbonyl)decahydropyrrolo[1,2-a]azocin-6-yl)carbamoyl)naphthalen-2-yl)methyl) phosphonic acid], the concentration for half-maximal inhibition (IC50) in test [1] (probe 5-FAM-Ap[…]-NH2 2 nM) was 300 to 3000 nM; in test [2] it was 1000 to 10000 nM.

Take `O=C(N[C@H]1CCCC[C@H]2CC[C@@H](C(=O)N3CC(c4cccnc4)CC34CC4)N2C1=O)c1ccc2ccc(C(F)P(=O)(O)O)cc2c1` (stereo partly drawn) [Compound 891, (fluoro(7-(((3S,6S,10aS)-5-oxo-3-(6-(pyridin-3-yl)-4-azaspiro[2.4]heptane-4-carbonyl)decahydropyrrolo[1,2-a]azocin-6-yl)carbamoyl)naphthalen-2-yl)methyl) phosphonic acid]: the IC50 was at most 300 nM in test [1] (probe 5-FAM-Ap[…]-NH2 2 nM) and 1000 to 10000 nM in test [2].

On to `O=C(N[C@H]1CCCC[C@H]2CC[C@@H](C(=O)N3CCC(c4cccnc4)C3)N2C1=O)c1ccc2ccc(C(F)P(=O)(O)O)cc2c1` (stereo partly drawn) [Compound 892, (fluoro(7-(((3S,6S,10aS)-5-oxo-3-(3-(pyridin-3-yl)pyrrolidine-1-carbonyl)decahydropyrrolo[1,2-a]azocin-6-yl)carbamoyl)naphthalen-2-yl)methyl) phosphonic acid], for which the results for the half-maximal inhibitory concentration (IC50) in test [1] (probe 5-FAM-Ap[…]-NH2 2 nM) and in test [2] were 300 to 3000 nM and 1000 to 10000 nM, respectively.

In the case of `O=C(N[C@H]1CCCC[C@H]2CC[C@@H](C(=O)N3C(=O)N(c4cccnc4)C(=O)C34CC4)N2C1=O)c1ccc2ccc(CP(=O)(O)O)cc2c1` [Compound 893, ((7-(((3S,6S,10aS)-3-(5,7-dioxo-6-(pyridin-3-yl)-4,6-diazaspiro[2.4]heptane-4-carbonyl)-5-oxodecahydropyrrolo[1,2-a]azocin-6-yl)carbamoyl)naphthalen-2-yl)methyl) phosphonic acid], the IC50 was 300 to 3000 nM in test [1] (probe 5-FAM-Ap[…]-NH2 2 nM) and 1000 to 10000 nM in test [2].

For the compound `O=C(N[C@H]1CCCC[C@H]2CC[C@@H](C(=O)N3CC(c4ccccc4)CC34CC4)N2C1=O)c1cnc2ccc(CP(=O)(O)O)cc2c1` (stereo partly drawn) [Compound 895, ((3-(((3S,6S,10aS)-5-oxo-3-(6-phenyl-4-azaspiro[2.4]heptane-4-carbonyl)decahydropyrrolo[1,2-a]azocin-6-yl)carbamoyl)quinolin-6-yl)methyl) phosphonic acid], the IC50 in test [1] (probe 5-FAM-Ap[…]-NH2 2 nM) fell in the range of 300 to 3000 nM; in test [2], 1000 to 10000 nM.

In the case of `CC(c1ccc2sc(C(=O)N[C@H]3CCC[C@H]4CC[C@@H](C(=O)N5CC(c6cccnc6)C5)N4C3=O)cc2c1)P(=O)(O)O` (stereo partly drawn) [Compound 896, (1-(2-(((3S,6S,9aS)-5-oxo-3-(3-(pyridin-3-yl)azetidine-1-carbonyl)octahydro-1H-pyrrolo[1,2-a]azepin-6-yl)carbamoyl)benzo [b]thiophen-5-yl)ethyl) phosphonic acid], the IC50 in test [1] (probe 5-FAM-Ap[…]-NH2 2 nM) is 3000 to 30000 nM; in test [2], 100 to 1000 nM.

For the compound `Cn1ccc(C2CN(C(=O)[C@@H]3CC[C@@H]4CCCC[C@H](NC(=O)c5cc6cc(C(F)P(=O)(O)O)ccc6s5)C(=O)N43)C3(CC3)C2)cc1=O` (stereo partly drawn) [Compound 898, (fluoro(2-(((3S,6S,10aS)-3-(6-(1-methyl-2-oxo-1,2-dihydropyridin-4-yl)-4-azaspiro[2.4]heptane-4-carbonyl)-5-oxodecahydropyrrolo [1,2-a]azocin-6-yl)carbamoyl)benzo [b]thiophen-5-yl)methyl) phosphonic acid], the 50% inhibitory concentration (IC50) in test [1] (probe 5-FAM-Ap[…]-NH2 2 nM) is at most 300 nM; in test [2], 1000 to 10000 nM.

Regarding `Cn1ccc(C2CCN(C(=O)[C@@H]3CC[C@@H]4CCCC[C@H](NC(=O)c5ccc6ccc(C(F)P(=O)(O)O)cc6c5)C(=O)N43)C2)cc1=O` (stereo partly drawn) [Compound 899, (fluoro(7-(((3S,6S,10aS)-3-(3-(1-methyl-2-oxo-1,2-dihydropyridin-4-yl)pyrrolidine-1-carbonyl)-5-oxodecahydropyrrolo [1,2-a]azocin-6-yl)carbamoyl)naphthalen-2-yl)methyl) phosphonic acid], the IC50 in test [1] (probe 5-FAM-Ap[…]-NH2 2 nM) was in the range of 300 to 3000 nM; in test [2], 1000 to 10000 nM.
